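The compound was tested at five concentrations on cells cultured in 96-well plates, with a 48-hour exposure period. GI50: concentration for 50% inhibition of growth.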 The source made the active and inactive calls. Rule as the data show it: active = GI50 up to about 1.1 µM and inactive = higher.
What was measured:
Test in all cases: NCI-60 cell line screen, 48 h
[1] = test system: UO-31
[2] = test system: RXF 393
[3] = test system: MOLT-4
[4] = test system: HCC 2998
[5] = test system: LXFL 529
[6] = test system: U-251
[7] = test system: HCT-15
[8] = test system: ACHN
[9] = test system: SW-620
[10] = test system: SN12C
[11] = test system: EKVX
[12] = test system: HL-60
[13] = test system: HCT-116
[14] = test system: SR
[15] = test system: SF-539
[16] = test system: OVCAR-5
[17] = test system: MDA-N
[18] = test system: MDA-MB-231
[19] = test system: MDA-MB-435
[20] = test system: MCF7

SMILES: Cc1ccc(NC(=O)C(=O)C(C#N)c2ccccc2C)cc1C (stereo unspecified)
- GI50 [1]: > 100 µM (inactive)
- GI50 [2]: > 100 µM (inactive)
- GI50 [3]: > 100 µM (inactive)
- GI50 [4]: > 54.3 µM (inactive)
- GI50 [5]: > 100 µM (inactive)
- GI50 [6]: > 77.3 µM (inactive)
- GI50 [7]: > 42.4 µM
- GI50 [8]: > 100 µM (inactive)
- GI50 [9]: > 41.8 µM (inactive)
- GI50 [10]: > 100 µM (inactive)
- GI50 [11]: > 100 µM (inactive)
- GI50 [12]: > 54.1 µM (inactive)
- GI50 [13]: > 44.5 µM (inactive)
- GI50 [14]: > 100 µM (inactive)
- GI50 [15]: > 100 µM (inactive)
- GI50 [16]: > 100 µM (inactive)

SMILES: N#CC(/C(CCCC(=O)Nc1cccc([N+](=O)[O-])c1)=N/NC(=O)c1cc2ccccc2cc1O)c1ccccc1 (stereo unspecified)
- GI50 [1]: 6.56 µM (inactive)
- GI50 [2]: 5.07 µM (inactive)
- GI50 [3]: 14.6 µM (inactive)
- GI50 [4]: 36.6 µM (inactive)
- GI50 [5]: 27.2 µM (inactive)
- GI50 [6]: 34.6 µM (inactive)
- GI50 [7]: 17.9 µM
- GI50 [8]: 34.3 µM (inactive)
- GI50 [9]: 34.6 µM (inactive)
- GI50 [10]: 35.6 µM (inactive)
- GI50 [11]: 23.2 µM (inactive)
- GI50 [12]: 4.79 µM (inactive)
- GI50 [13]: 35.6 µM (inactive)
- GI50 [14]: 26.8 µM (inactive)
- GI50 [15]: 27.4 µM (inactive)
- GI50 [16]: 36.5 µM (inactive)

SMILES: COc1ccc(/C=C2/CSC/C(=C/c3ccc(OC)c(OC)c3)C2=O)cc1OC
- GI50 [1]: 4.65 µM (inactive)
- GI50 [2]: 3.34 µM (inactive)
- GI50 [17]: 2.58 µM (inactive)
- GI50 [3]: 1.74 µM (inactive)
- GI50 [18]: 3.28 µM (inactive)
- GI50 [4]: 2.57 µM (inactive)
- GI50 [5]: 1.93 µM (inactive)
- GI50 [19]: 2.97 µM (inactive)
- GI50 [6]: 1.01 µM (active)
- GI50 [7]: 1.52 µM
- GI50 [8]: 2.31 µM (inactive)
- GI50 [9]: 1.19 µM (inactive)
- GI50 [10]: 1.77 µM (inactive)
- GI50 [11]: 5.86 µM (inactive)
- GI50 [20]: 2.22 µM (inactive)
- GI50 [12]: 1.03 µM (active)
- GI50 [13]: 0.971 µM (active)
- GI50 [14]: 0.828 µM (active)
- GI50 [15]: 2.03 µM (inactive)
- GI50 [16]: 4.62 µM (inactive)

SMILES: CCc1cccc(C(C)C)c1C1C(=O)C(=O)N(c2nc3ccccc3s2)C(=O)C1=O
- GI50 [1]: > 100 µM (inactive)
- GI50 [2]: > 100 µM (inactive)
- GI50 [3]: > 100 µM (inactive)
- GI50 [4]: > 100 µM (inactive)
- GI50 [5]: > 100 µM (inactive)
- GI50 [6]: > 100 µM (inactive)
- GI50 [7]: > 100 µM
- GI50 [8]: > 100 µM (inactive)
- GI50 [9]: > 100 µM (inactive)
- GI50 [10]: > 100 µM (inactive)
- GI50 [11]: > 100 µM (inactive)
- GI50 [12]: > 100 µM (inactive)
- GI50 [13]: > 100 µM (inactive)
- GI50 [14]: > 100 µM (inactive)
- GI50 [15]: > 100 µM (inactive)
- GI50 [16]: > 100 µM (inactive)

SMILES: O=Nc1ccc(O)c2ncccc12
- GI50 [1]: 2.98 µM (inactive)
- GI50 [2]: 1.67 µM (inactive)
- GI50 [17]: 1.75 µM (inactive)
- GI50 [18]: 6.43 µM (inactive)
- GI50 [4]: 15.6 µM (inactive)
- GI50 [5]: 2.38 µM (inactive)
- GI50 [19]: 1.26 µM (inactive)
- GI50 [6]: 3.31 µM (inactive)
- GI50 [7]: 2.52 µM
- GI50 [8]: 3.13 µM (inactive)
- GI50 [9]: 4.79 µM (inactive)
- GI50 [10]: 8.18 µM (inactive)
- GI50 [11]: 0.525 µM (active)
- GI50 [20]: 1.76 µM (inactive)
- GI50 [12]: 0.581 µM (active)
- GI50 [13]: 0.822 µM (active)
- GI50 [14]: 0.328 µM (active)
- GI50 [15]: 1.44 µM (inactive)
- GI50 [16]: 15.7 µM (inactive)

SMILES: C=C1C(=O)C=C2C=C3C(=O)C(C)(C)C[C@]3(O)C12C (stereo partly specified)
- GI50 [1]: 7.11 µM (inactive)
- GI50 [2]: 1.48 µM (inactive)
- GI50 [17]: 3.76 µM (inactive)
- GI50 [3]: 0.57 µM (active)
- GI50 [18]: 2.36 µM (inactive)
- GI50 [4]: 19.7 µM (inactive)
- GI50 [5]: 1.26 µM (inactive)
- GI50 [19]: 12.4 µM (inactive)
- GI50 [6]: 17.9 µM (inactive)
- GI50 [7]: 2.25 µM
- GI50 [8]: 2.23 µM (inactive)
- GI50 [9]: 0.968 µM (active)
- GI50 [10]: 9.4 µM (inactive)
- GI50 [11]: 16.1 µM (inactive)
- GI50 [12]: 0.497 µM (active)
- GI50 [13]: 3.97 µM (inactive)
- GI50 [14]: 0.452 µM (active)
- GI50 [15]: > 43.2 µM (inactive)
- GI50 [16]: 9.55 µM (inactive)

Reference: ChEMBL document CHEMBL1201862, “PubChem BioAssay data set” (2004)
